Source: patent publication US11130762B2, “Azaaryl derivative, preparation method therefor, and application thereof for use in pharmacy” (Abbisko Therapeutics Co., Ltd., priority 2017, dated 2021)
Where two headings read alike, the source gives them in different places.

Legend:
CSF-1R = CSF-1R (Homo sapiens, UniProt P07333); experiment: CSF-1R in vitro biochemical kinase study (ADP-Glo assay); settings: 500 μM ATP, * = average of multiple tests, read-out: Enzymatic experiment CSF1R IC50
Experimental: A. CSF-1R In Vitro Biochemical Kinase Study
In the present invention, the inhibitory activity of compounds against the CSF-1R activity was determined by using CSF-1R ADP-Glo assay. The compound-mediated inhibition effect was achieved by inhibiting the production of ADP from consumption of ATP, and the activities of compounds were evaluated by using the ADP-Glo kit (Promega, cat. No. V9101). The specific experimental process was as follows:
1. The kinase reaction performed in the present invention was carried out in a 384-well plate (Perkinelmer, cat. No. 6007290), 3.95 nM of CSF-1R, 500 μM of ATP, and 0.2 mg/mL of polypeptide (Poly (Glu4, Try1), Sigma, cat. No. P0275) were respectively weighed and added to each well:
2. following reagents were then added to each well to reach the final reaction system: 40 mM Tris, pH 7.5, 20 mM MgCl2, 0.01% Triton X-100, 0.1 mg/mL BSA, 2.5 mM DTT, and 0.1% DMSO;
3. the reaction was conducted at 30° C. for 60 min;
4. then an equal volume of stop solution (ADP-Glo) was added to the kinase reaction system;
5. the mixed solution was incubated at 25° C. for 60 min, and the kinase reaction was then terminated;
6. a two-fold volume of detection reagent was then added to each well;
7. the mixed solution was incubated at 25° C. for 30 min;
8. the compound IC50 value was measured by using a plate reader (Tecan, M1000) and a four-parameter curve was generated in Graphpad Prism.

[1] = tested on: M-NFS-60 mouse myeloid leukemia lymphocytes; experiment: CSF-1R-related cell proliferation experiment (Cell Titer Glo), M-NFS-60 cells with M-CSF; assay type: cell-based; settings: Lymphocyte, 72 h, 3 days, CTG, * = average of multiple tests
Experimental: C. CSF-1R-Related Cell Proliferation Experiment
Functional effects of compounds on cell proliferation were evaluated by using Cell Titer Glo (CTG) study in the present invention. M-NFS-60 mouse myeloid leukemia lymphocytes (cat. No. CCBJ078) from National Institutes For Food and Drug Control were cultured in the incubator under conditions of RPMI 1640 (Gibco, cat. No. 11875-119), 10% fetal bovine serum (Gibco, 10099-141), human 10 ng/mL M-CSF macrophage colony-stimulating factor (R&D, cat. No. MVN0915101), 37° C., and 5% CO2. Since ATP is an index for viable cell metabolism, CTG (Promega, #G7573) reagent is a homogeneous detection method for detecting the number of viable cells in the culture by quantifying ATP. Therefore, compound-mediated inhibition for cell proliferation/survival was evaluated by quantifying ATP content in cells, and the specific experimental process was as follows:
1. The cells were plated into a tissue-culture-medium-treated 96-well plate (Costar #3904) with 5,000 cells/well/80 μL fresh culture medium;
2. 24 hours later, 10 μL culture medium containing testing compound with 10-fold of final concentration was added to each well;
3. 10 μL of culture medium containing M-CSF with 10-fold of the final concentration was then added to each well;
4. dosage effect was evaluated by testing the 3-fold serial dilutions of the compound;
(§1) 5. after the cells were incubated for 3 days at 37° C. and 5% CO2, the inhibition on cell survival was quantified after 50 μL of CTG was added and the luminescence assay was performed;
(§2) 6. the compound concentration leading to half maximal inhibitory (IC50) and the compound concentration leading to absolute half maximal inhibitory (Absolute IC50) were measured by a plate reader (M1000, Tecan) and a four-parameter curve fit in Graphpad Prism 7.

[2] = tested on: M-07e human cytomegalic leukemia cells; experiment: Cell proliferation (Cell Titer Glo), M-07e cells with SCF (KIT); assay type: cell-based; settings: 72 h, 3 days, CTG, * = average of multiple tests, read-out: Cytological experiment KIT IC50
Experimental: (§3) D. CSF-1R-Related Cell Proliferation Experiment
(§4) Functional effects of compounds on the proliferation of several cell lines were evaluated by Cell Titer Glo (CTG) studies in the present invention, and effects of the compounds on the proliferation of different cells were evaluated to determine the selectivity degree of the compounds. In the experiment, M-07e human cytomegalic leukemia cells (cat. No. CBP60791) from Nanjing Kebai Biotechnology Co., Ltd. were cultured in an incubator under conditions of RPMI1640 (Gibco, cat. No. 11875-119), 20% fetal bovine serum (Gibco, 10099-141), human 10 ng/mL GM-CSF granulocyte macrophage colony-stimulating factors (R&D, cat. No. 215-GM-010), 37° C., and 5% CO2; and Kasumi-1 human acute myeloblastic leukemia cells (cat. No. CBP60524) were cultured in an incubator under conditions of RPMI1640 (Gibco, cat. No. 11875-119), 20% fetal bovine serum (Gibco, 10099-141), 37° C., and 5% CO2: NCI-H1703 human non-small cell lung squamous carcinoma cells (cat. No. CBP60115) were cultured in an incubator under conditions of RPMI1640 (Gibco, cat. No. 11875-119), 10% fetal bovine serum (Gibco, 10099-141), 37° C., and 5% CO2; MV-4-11 human acute monocytic leukemia cells (cat. No. CBP60522) were cultured in an incubator under conditions of IMDM (Invitrogen, cat. No. 12440053), 20% fetal bovine serum (Gibco, 10099-141), 37° C., and 5% CO2. Since ATP is an index for viable cell metabolism, CTG (Promega, #G7573) reagent is a homogeneous detection method for detecting the number of viable cells in the culture by quantifying ATP. Therefore, compound-mediated inhibition for cell proliferation/survival was evaluated by quantifying ATP content in cells, and the specific experimental process was as follows.
I) M-07e Human Cytomegalic Leukemia Cell:
1. The cells were plated into a tissue-culture-medium-treated 96-well plate (Costar #3904) with 3500 cells/well/80 μL fresh culture medium, and cultured for 24 hrs;
(§5) 2. the next day, 10 μL of culture medium containing testing compound with 10-fold of final concentration was added to each well:
3. 10 μL of culture medium containing SCF recombinant human stem cell factor (R&D, cat. No. 7466-SC-010) with 10-fold of the final concentration was then added to each well;
4. the dosage effect was evaluated by testing 4-fold serial dilutions of the compound, which started from 18 μM;
as §1, §2

[3] = tested on: MV-4-11 human acute monocytic leukemia cells; experiment: Cell proliferation (Cell Titer Glo), MV-4-11 cells (FLT3); assay type: cell-based; settings: MV4-11, 72 h, 3 days, CTG, * = average of multiple tests, read-out: Cytological experiment FLT3 IC50
Experimental: as §3, §4
III) MV-4-11 Human Acute Monocytic Leukemia Cell
1. The cells were inoculated into a tissue-culture-medium-treated 96-well plate (Costar #3904) with 5000 cells/well/90 μL fresh culture medium, and cultured for 24 hrs:
2. the next day, 10 μL of culture medium containing testing compound with 10-fold of final concentration was added to each well;
(§6) 3. the dosage effect was evaluated by testing 3-fold serial dilutions of the compound, which started from 18 μM;
4. after the cells were incubated for 3 days at 37° C. and 5% CO2, the inhibition on cell survival was quantified after 50 μL of CTG was added and the luminescence assay was performed;
(§7) 5. the compound concentration leading to half maximal inhibitory (IC50) and the compound concentration leading to absolute half maximal inhibitory (Absolute IC50) were measured by a plate reader (M1000, Tecan) and a four-parameter curve fit in Graphpad Prism 7.

[4] = tested on: NCI-H1703 human non-small cell lung squamous carcinoma cells; experiment: Cell proliferation (Cell Titer Glo), NCI-H1703 cells (PDGFRA); assay type: cell-based; settings: 72 h, 3 days, CTG, * = average of multiple tests, read-out: Cytological experiment PDGFRA IC50
Experimental: as §3, §4
II) NCI-H1703 Human Non-Small Cell Lung Squamous Carcinoma Cell
1. The cells were inoculated into a tissue-culture-medium-treated 96-well plate (Costar #3904) with 5000 cells/well/90 μL fresh culture medium, and cultured for 24 hrs;
as §5, §6
4. after the cells were incubated for 3 days at 37° C. and 5% CO2, the inhibition on cell survival was quantified after 50 μL of CTG was added and the luminescence assay was performed:
as §7

[5] = read-out: Cytological experiment CSF1R IC50
[6] = absolute half maximal inhibition, read-out: Cytological experiment CSF-1R Absolute IC50

CSF-1R, sequence (P07333 20-972): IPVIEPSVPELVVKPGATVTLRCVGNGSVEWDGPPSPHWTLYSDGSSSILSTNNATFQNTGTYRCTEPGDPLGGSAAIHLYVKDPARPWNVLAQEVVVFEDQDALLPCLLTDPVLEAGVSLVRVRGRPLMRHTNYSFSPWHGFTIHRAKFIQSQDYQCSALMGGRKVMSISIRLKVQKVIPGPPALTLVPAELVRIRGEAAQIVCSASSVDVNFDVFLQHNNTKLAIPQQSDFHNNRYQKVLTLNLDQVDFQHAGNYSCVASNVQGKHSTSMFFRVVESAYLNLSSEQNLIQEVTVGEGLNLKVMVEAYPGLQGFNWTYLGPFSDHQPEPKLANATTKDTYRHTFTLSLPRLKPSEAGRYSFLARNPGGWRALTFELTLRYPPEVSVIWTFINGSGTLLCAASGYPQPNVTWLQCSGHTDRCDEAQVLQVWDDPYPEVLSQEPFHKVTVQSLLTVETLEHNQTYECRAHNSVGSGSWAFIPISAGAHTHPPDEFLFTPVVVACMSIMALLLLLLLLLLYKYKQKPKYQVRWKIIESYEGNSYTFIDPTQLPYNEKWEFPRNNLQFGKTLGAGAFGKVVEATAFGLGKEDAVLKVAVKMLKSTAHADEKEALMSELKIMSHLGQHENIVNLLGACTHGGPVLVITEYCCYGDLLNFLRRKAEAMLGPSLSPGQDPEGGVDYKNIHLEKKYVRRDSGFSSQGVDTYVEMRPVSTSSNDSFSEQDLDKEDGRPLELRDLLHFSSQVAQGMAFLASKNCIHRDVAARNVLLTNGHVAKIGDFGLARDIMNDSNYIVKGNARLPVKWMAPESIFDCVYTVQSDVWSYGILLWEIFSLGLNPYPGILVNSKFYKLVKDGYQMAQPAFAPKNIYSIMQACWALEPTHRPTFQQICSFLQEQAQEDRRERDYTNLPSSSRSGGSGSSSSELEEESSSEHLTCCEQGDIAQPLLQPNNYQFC

Compound | IC50 (CSF-1R) [µM] | IC50 [1, 5] [µM] | IC50 [1, 6] [µM] | IC50 [2] [µM] | IC50 [3] [µM] | IC50 [4] [µM]
Cc1nc(-c2cnc3n(c2=O)CC[C@@H]2CCCN32)ccc1Oc1ccnc(-c2cnn(C)c2)c1 [Example 12] | 0.107 | 0.0852 | 0.0778 | 0.755 | > 18 | > 2
Cc1nc(-c2cnc3n(c2=O)CCC(C)N3C)ccc1Oc1ccnc(-c2cnn(C)c2)c1 (stereo not drawn) [Example 10, 8,9-dimethyl-3-(6-methyl-5-((2-(1-methyl-1H-pyrazol-4-yl)pyridin-4-yl)oxy)pyridin-2-yl)-6,7,8,9-tetrahydro-4H-pyrimido[1,2-a]pyrimidin-4-one] | 0.108 | 0.135 | 0.124 | > 18 | > 18 | > 18
Cc1nc(-c2cnc3n(c2=O)CCCN3C2CCC2)ccc1Oc1ccnc(-c2cnn(C)c2)c1 [Example 9, 9-cyclobutyl-3-(6-methyl-5-((2-(1-methyl-1H-pyrazol-4-yl)pyridin-4-yl)oxy)pyridin-2-yl)-6,7,8,9-tetrahydro-4H-pyrimido[1,2-a]pyrimidin-4-one] | 0.0683 | 0.0648 | 0.0589 | 0.321 | 2 | 1.58
Cc1nc(-c2cnc3n(c2=O)CC[C@@H](C)N3)ccc1Oc1ccnc(-c2cnn(C)c2)c1 [Example 6, (R)-8-methyl-3-(6-methyl-5-((2-(1-methyl-1H-pyrazol-4-yl)pyridin-4-yl)oxy)pyridin-2-yl)-6,7,8,9-tetrahydro-4H-pyrimido[1,2-a]pyrimidin-4-one] | 0.296 | > 2 | 0.71 |  |  | 
Cc1nc(-c2cnc3n(c2=O)CCCN3C)ccc1Oc1ccnc(-c2cn[nH]c2)c1 [Example 7, 3-(5-((2-(1H-pyrazol-4-yl)pyridin-4-yl)oxy)-6-methylpyridin-2-yl)-9-methyl-6,7,8,9-tetrahydro-4H-pyrimido[1,2-a] pyrimidin-4-one] | 0.0842 | 0.498 | 0.488 | > 1.12 | > 18 | > 2
CCCN1CCCn2c1ncc(-c1ccc(Oc3ccnc(-c4cnn(C)c4)c3)c(C)n1)c2=O [Example 11, 3-(6-methyl-5-((2-(1-methyl-1H-pyrazol-4-yl)pyridin-4-yl)oxy)pyridin-2-yl)-9-propyl-6,7,8,9-tetrahydro-4H-pyrimido [1,2-a]pyrimidin-4-one] | 0.319 | 0.222 | 0.273 | > 2 | > 6 | > 6
CCn1cc(-c2cc(Oc3ccc(-c4cnc5n(c4=O)CCCN5C)nc3C)ccn2)cn1 [Example 8] | 0.0777 | 0.151 | 0.361 |  |  | 
Cc1nc(-c2cnc3n(c2=O)CCN3C)ccc1Oc1ccnc(-c2cnn(C)c2)c1 [Example 3, 1-methyl-6-(6-methyl-5-((2-(1-methyl-1H-pyrazol-4-yl)pyridin-4-yl)oxy)pyridin-2-yl)-2,3-dihydroimidazo[1,2-a]pyrimidin-5(1H)-one] | 0.157 | 0.249 | 0.185 |  |  | 
